These are literature values, as cited in patent US20250258179A1, “Method for Estimating Meal Component Bioavailability” (The Texas A&M University System, priority 2024, published 2025).

In this data set the test system is critically ill patients. Conditions: recently shown.

For the compound `CC(C)(O)CC(=O)O` [HMB, hydroxy-methylbutyric acid], the protein breakdown result is “reduction in protein breakdown”.
